Laboratory results published in patent publication US8293782B2, “Compound, probe containing the novel compound, and fluorescence-imaging contrast agent containing the novel compound or the probe” (Canon Kabushiki Kaisha, priority 2009, dated 2012).

Experiment: Fading evaluation in fetal bovine serum under interior light (680 LUX)
Format: physicochemical
Conditions: 5 μM in FBS, absorbance at maximum absorption wavelength after 24 hours
Description: The ordinate of FIG. 10 indicates log(At/A0) where A0 and At respectively represent absorbance at the maximum absorption wavelength after the lapse of 0 and t hours from the irradiation of the interior light. The fading rate in Table 1 is expressed by (A0-A24)/A0, that is, variation in absorbance at the maximum absorption wavelength after the lapse of 24 hours.

Fading rate (A0-A24)/A0: 4.5%
Substance: Alexa Fluor (trademark) 750 [Reagent 1]
